A short description of data set [1]: 11B NMR complexing efficiency with 4NBA. The data set is classed as physicochemical. The settings on record: for Diol-PBA Complex %: 4NBA, pH 8.5, PBA:Diol 1:1, acetonitrile/PBS, room temperature; for degree of complexation with 4NBA: pH and equivalence not stated. How it is done:
(§1) Direct complexation of DP3-Insulin was carried out at an aqueous/organic 2/1 v/v solution in order to enable co-solubility with hydrophobic phenylboronic acids. Equal molar quantities of 4NBA and DP3-Insulin (0.5 mM) were dissolved in 2:1 acetonitrile:PBS and then the pH was modified to 7.5 or 8.5 by adding calculated amount of concentrated NaOH solution. The obtained complex was immediately frozen in liquid nitrogen and then freeze dried to generate a white solid. Similarly, selected diols (glucose, fructose, 4EC, 2HA, Azido-6-glactose, DP1-peptide and DP3-peptide) were formulated via the direct method. In order to validate formation of a complex 4NBA-diols, 1TBA-solids obtained by the direct method, as well as, their organic/aqueous solutions (prior to freeze drying) were analyzed with ^11B NMR and via FTIR.
(§2) 1TBA and 4NBA complexing efficiency with selected diols was measured in similar conditions but at a mixture of acetonitrile/PBS 2:1, according to the direct formulation procedure. Solid PBA-DIOL complexes were evaluated in DMSO. Data were analyzed with VNMR 6.1c software. Chemical shifts are reported in parts per million (ppm) on the δ scale.

Data set [2] in a line: 11B NMR complexing efficiency with 1TBA. It counts as physicochemical. The method, then:
as §1, §2

For data set [3] the following is noted: in vivo; cited from earlier work.
Data set [4] is described as follows: 11B NMR complexation efficiency with 4-carboxyphenylboronic acid. The settings on record: PBS 0.1M, 37° C. It counts as physicochemical. The method, then:
^11B NMR spectra were recorded on a VARIAN Inova-500 spectrometer operated at 160.3 MHz with gXH switchable broadband probe installed. Samples at a concentration of 10 mM were transferred to a 5 mm Norell natural quartz NMR tube (Sigma-Aldrich). Diols and 4-carboxyphenylboronic acids were co-dissolved in phosphate buffer, 0.1 M at pH 7.4 or 8.5 and tested at 37° C.
PBA is known to recognize and bind to compounds containing 1,2- and 1,3-diol residues via the formation of a boronate ester [Wang et al., Curr. Org. Chem. 2002, 6, 1285-1317]. At aqueous conditions the boronate ester is a dynamic complex. […] In order to achieve this goal, a variety of commercially available azido substituted diols were tested for their ability to complex with PBA. […] In addition, the effect of azide group on the binding with PBA is unknown. Therefore, 4 commercially available azido diols (FIGS. 16A to 16D) were selected for testing based on their diverse structures. These compounds include azido-substituted monosaccharides (A and C), disaccharide (B), oligosaccharide (C), adenosine (D) and dopamine (E). The complexation between 4-carboxyphenylboronic acid and above materials was evaluated using ^11B NMR (FIG. 16, Table 1).
The chemical shift of boron in PBA changes when it is complexed with a diol. […] Therefore, the efficiency of complexation was estimated by monitoring the ratio of these two peaks. The effect of pH on complexation and structure of diols was studied.

Data set [5] can be described thus: 11B NMR stability of 4NBA:diol complexes in phosphate buffer. The settings on record: suspended in PBS, after 24 hr, pH 7.4, 37° C. The method, then: FIG. 18 is a graph showing ^11B NMR analysis for the stability of 4NBA:diol complexes at phosphate buffer, 0.1 M, pH 7.4, 37° C. […] Solids were then separated via centrifugation and freeze dried. Samples were dissolved in DMSO-d^6 at a concentration of 10 mM and were tested at room temperature.
Complexation of DP3-Insulin with PBA was studied with ^11B NMR between 4NBA, 1TBA and selected diols (Table 2).

For data set [6] the following is noted: traditional phenylboronic acid; cited from earlier work.
Data set [7] in a line: Solubility of hydrophobic PBA as function of glucose or fructose concentration. It counts as physicochemical. The conditions noted are these: PBS with 0-1000 mg/dL glucose or fructose, 6 hours, RT. How it is done: FIGS. 19A and 19B are graphs showing hydrophobic PBAs (1TBA, 4DBA and 4NBA) tested as a function of glucose (A) and fructose (B) concentrations in PBS. 10 mg of solid, hydrophobic PBA were dispersed in […] of phosphate buffer saline containing various concentrations of glucose and fructose; samples were mixed for 6 hours at room temperature, centrifuged, and aliquots were quantified against a calibration curve using reverse phase HPLC.
2.14. Solubility of Hydrophobic PBA as Function of Glucose or Fructose Concentration. 10 mg of Hydrophobic PBA (4DBA, 1TBA and 4NBA) were suspended in 40 ml vials containing phosphate buffer saline with various concentrations of glucose or fructose (0-1000 mg/dL); samples were mixed for 6 hours at RT. The solid suspension was centrifuged and aliquots were evaluated for PBA concentration. Analytical HPLC (Agilent 1200) was used to analyze samples. 2.15 Diol-Insulin Analogs PBA Affinity Test

Setting [8] is: pH 7.4, PBA:Diol 1:2, PBA 10 mM.
Setting [9] is: pH 8.5, PBA:Diol 1:2, PBA 10 mM.
Setting [10] is: pH 7.4, PBA:Diol 1:1, PBA 10 mM.
The mark [11] stands for this setting: pH 7.4, PBA:Diol 1:10, PBA 10 mM.

We go through 14 compounds from patent publication US9867869B2, “Insulin derivatives for diabetes treatment” (Massachusetts Institute of Technology, priority 2012, dated 2018).

On to `CCc1ccc(O)c(O)c1` [4EC], for which the “Diol-PBA Complex %” value in data set [1] was 87%; in data set [2] (1TBA, pH 8.5, PBA:Diol 1:1, acetonitrile/PBS, room temperature), 75%. The complexation ratio in data set [2] (pH of 7.5, PBA not specified (1TBA and 4NBA named)) is given as 10%.

As for glargine, the “time basal level of insulin is maintained” value in data set [3] is “up to 24 hours”.

With `[N-]=[N+]=Nc1nc2c(N)ncnc2n1[C@@H]1O[C@H](CO)[C@@H](O)[C@H]1O` [8-Azido-Adenoside], the Complex % in data set [4] (setting [8]) was found to be 47.6%; in data set [4] (pH 7.4, PBA:Diol 1:2, PBA 10 mM, listed as D) it was 48%; in data set [4] (setting [9]), 61.6%.

Take Maltoheptaose: the Complex % turned out to be 7.5% in data set [4] (setting [10]) and 4.0% in data set [4] (pH 8.5, PBA:Diol 1:1, PBA 10 mM).

With `[N-]=[N+]=N[C@@H]1O[C@H](CO)[C@@H](O[C@@H]2O[C@H](CO)[C@H](O)[C@H](O)[C@H]2O)[C@H](O)[C@H]1O` [1-Azido-1-deoxy-beta-D-lactopyranoside], the Complex % came out at 4.0% in data set [4] (setting [8]) and 8.3% in data set [4] (setting [9]).

As to `O=C[C@H](O)[C@@H](O)[C@H](O)[C@H](O)CO` [Glucose], the “degree of complexation with 4NBA” value in data set [1] came to 74%. For the same compound, the Complex % in data set [4] (setting [10]) is recorded as 4.0%; in data set [4] (setting [8]) it was 11.0%; in data set [4] (pH 7.4, PBA:Diol 1:2, PBA 10 mM, listed as glucose), 11%; in data set [4] (setting [11]), 22.8%; in data set [4] (setting [9]), 49.4%; in data set [4] (pH 8.5, PBA:Diol 1:2, PBA 10 mM, listed as glucose), “up to 50%”. Moreover, the complexed form remaining entry in data set [5] is “less than 10%”.

For “azido-pentanoic-DOPA-GLY-DOPA-GLY-DOPA-GLY-NH2 [DP3-peptides]”, in data set [1], the “Diol-PBA Complex %” value stood at 91%.

For `OB(O)c1ccccc1` [phenylboronic acid], the pKa result in data set [6] is on record as “approximately 8.9”.

As to `[N-]=[N+]=N[C@H]1O[C@H](CO)[C@@H](O)[C@H](O)[C@@H]1O` [Alpha-D-Mannopyranosyl azide], the figures for the Complex % in data set [4] (setting [8]) and in data set [4] (setting [9]) were 4.2% and 22.5%, respectively.

`O=C(CO)[C@@H](O)[C@H](O)[C@H](O)CO` [Frucrose]: the “degree of complexation with 4NBA” value in data set [1] is given as ~100%. In addition, the Complex % was found to be 27.4% in data set [4] (setting [10]); 34.9% in data set [4] (setting [8]); 35% in data set [4] (pH 7.4, PBA:Diol 1:2, PBA 10 mM, listed as Fructose); 44.9% in data set [4] (setting [11]); 67.3% in data set [4] (setting [9]). The complexed form remaining entry in data set [5] was “above 50%”.

In the case of `NCCc1ccc(O)c(O)c1` [Dopamine], the Complex % in data set [4] (setting [8]) was determined as 38.7%; in data set [4] (pH 7.4, PBA:Diol 1:2, PBA 10 mM, listed as E), 39%; in data set [4] (setting [11]), 58.1%; in data set [4] (setting [9]), 100.0%.

Consider `[N-]=[N+]=NC[C@@H](O)[C@H](O)[C@H](O)[C@@H](O)C=O` [6-azido-6-deoxy-D-galactose], for which the Complex % in data set [4] (setting [8]) is recorded as 17.6%; in data set [4] (setting [9]), 74.9%.

As for “Lispro: fast acting insulin where B29 lysine and B28 proline have been switched”, in data set [3], the duration of action was 4 to 6 h, the onset time was 5 to 15 min and the peak action was 30 to 90 min.

Take `COc1ccc(CN(C2CCCCC2)S(=O)(=O)c2ccc(B(O)O)cc2)cc1` [4NBA, 4-(N-cyclohexyl-N-(4-methoxybenzyl)sulfamoyl)phenylboronic acid]: in data set [7], the “solubility and glucose response range” value is “low solubility and response range within expected diabetic glucose levels”.
